Measured values taken from the supplement of paper PMC10307832.

What was measured:
Assay in all cases: relative viability (nuclei count vs DMSO), 5 days (fraction); higher = more cells survive
[1] = compound: Cc1ccc2nc(NCCN)c3ncc(C)n3c2c1 + Cc1nc(NC(=O)N2CCC[C@H]2C(N)=O)sc1-c1ccnc(C(C)(C)C(F)(F)F)c1 [Alpelisib] (partner 2 µM)
Summary of the method: (§1)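 Five library-drug doses in √10 steps were combined with a fixed anchor-drug dose, or a single drug was given alone, by pin tool to lung cancer cell lines in 1536-well plates the day after seeding. Nuclei were stained and counted after 5 days. Relative viability is the nuclei count in treated wells over that in vehicle wells, taken as the median of duplicate plates.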

Salubrinal + Pemetrexed = compound: O=C(/C=C/c1ccccc1)NC(NC(=S)Nc1cccc2cccnc12)C(Cl)(Cl)Cl [Salubrinal] + Nc1nc2[nH]cc(CCc3ccc(C(=O)N[C@@H](CCC(=O)O)C(=O)O)cc3)c2c(=O)[nH]1 [Pemetrexed] (partner 0.2 µM)
Summary of the method: as §1

[2] = compound: Cc1ccc2nc(NCCN)c3ncc(C)n3c2c1
Summary of the method: (§2)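 After an overnight hold at 37 °C, lung cancer cell lines in 1536-well plates were pinned with five library-drug doses (not always all listed), each √10 from the next, on vehicle-anchored plates. The cells stayed 5 days without fresh medium, then a one-step fix, permeabilisation and Hoechst stain preceded 4× imaging and MetaXpress nuclear counts. A plate passed only with control CV under 25% and at least one doubling. Viability is the median, over plates, of treated-well nuclei relative to vehicle-well nuclei.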

Salubrinal = compound: O=C(/C=C/c1ccccc1)NC(NC(=S)Nc1cccc2cccnc12)C(Cl)(Cl)Cl [Salubrinal]
Summary of the method: as §2

| Cell Line | relative viability ([1]; first compound 0.04 µM) | relative viability ([1]; first compound 0.1265 µM) | relative viability ([1]; first compound 0.4 µM) | relative viability ([1]; first compound 1.265 µM) | relative viability ([1]; first compound 4 µM) | relative viability (Salubrinal + Pemetrexed; first compound 0.08 µM) | relative viability (Salubrinal + Pemetrexed; first compound 0.253 µM) | relative viability (Salubrinal + Pemetrexed; first compound 0.8 µM) | relative viability (Salubrinal + Pemetrexed; first compound 2.53 µM) | relative viability (Salubrinal + Pemetrexed; first compound 8 µM) | relative viability ([2]; 0.04 µM) | relative viability ([2]; 0.1265 µM) | relative viability ([2]; 0.4 µM) | relative viability ([2]; 1.265 µM) | relative viability ([2]; 4 µM) | relative viability (Salubrinal; 0.08 µM) | relative viability (Salubrinal; 0.253 µM) | relative viability (Salubrinal; 0.8 µM) | relative viability (Salubrinal; 2.53 µM) | relative viability (Salubrinal; 8 µM) |
| --- | --- | --- | --- | --- | --- | --- | --- | --- | --- | --- | --- | --- | --- | --- | --- | --- | --- | --- | --- | --- |
| NCI-H596 | 0.56 | 0.46 | 0.446 | 0.491 | 0.452 | 0.493 | 0.518 | 0.56 | 0.509 | 0.466 | 0.952 | 0.934 | 1.02 | 0.937 | 0.909 | 1.08 | 0.89 | 1.01 | 0.896 | 0.982 |
| A-427 | 1.09 | 1.13 | 1.05 | 1.07 | 1.14 | 0.957 | 0.964 | 1.17 | 1.03 | 1.1 | 1.01 | 1.01 | 0.968 | 1.05 | 0.95 | 1.06 | 0.973 | 1.12 | 0.965 | 1.08 |
| EMC-BAC-2 | 0.748 | 0.722 | 0.72 | 0.793 | 0.719 | 0.42 | 0.441 | 0.459 | 0.473 | 0.478 | 1 | 1 | 0.966 | 1.08 | 0.946 | 0.934 | 1.06 | 1.25 | 0.996 | 0.973 |
| NCI-H441 | 0.646 | 0.719 | 0.843 | 0.746 | 0.928 | 0.271 | 0.274 | 0.274 | 0.275 | 0.255 | 1.1 | 1.05 | 1.09 | 1.11 | 0.964 | 1.25 | 1.02 | 1.34 | 1.03 | 0.784 |
| LCLC-103H | 0.996 | 0.938 | 0.94 | 0.884 | 0.991 | 0.439 | 0.539 | 0.506 | 0.461 | 0.457 | 1 | 0.974 | 0.918 | 1.08 | 0.955 | 1.07 | 0.932 | 1.05 | 1.09 | 0.935 |
| HCC-827 | 0.964 | 1.02 | 0.941 | 0.958 | 0.905 | 0.503 | 0.276 | 0.278 | 0.227 | 0.245 | 1.07 | 1.04 | 1.02 | 1.04 | 1.05 | 1.04 | 1.07 | 1.01 | 1.01 | 1.03 |
| NCI-H1355 | 0.783 | 0.862 | 0.819 | 0.763 | 0.797 | 1.11 | 1.02 | 1.1 | 1.03 | 1.09 | 1.05 | 0.983 | 0.938 | 0.995 | 0.935 | 1.11 | 0.941 | 1.03 | 0.979 | 0.955 |
| NCI-H1734 | 0.699 | 0.634 | 0.668 | 0.605 | 0.685 | 0.423 | 0.454 | 0.41 | 0.427 | 0.409 | 0.979 | 0.99 | 0.886 | 0.9 | 0.979 | 1.02 | 0.882 | 1.14 | 1.01 | 0.909 |
| HARA | 0.839 | 0.831 | 0.804 | 0.715 | 0.788 | 0.254 | 0.285 | 0.327 | 0.273 | 0.254 | 0.913 | 0.956 | 0.928 | 0.843 | 0.973 | 1 | 0.956 | 1.02 | 0.908 | 1.17 |
| HCC-15 | 0.879 | 0.906 | 0.93 | 0.868 | 0.814 | 0.205 | 0.266 | 0.234 | 0.231 | 0.211 | 1 | 1.09 | 0.907 | 0.916 | 0.86 | 1.13 | 0.93 | 1.14 | 1.08 | 0.963 |
| LCLC-97TM1 | 0.321 | 0.241 | 0.225 | 0.183 | 0.194 | 0.169 | 0.218 | 0.19 | 0.158 | 0.158 | 1.07 | 0.934 | 0.978 | 1.04 | 0.899 | 1.07 | 1.06 | 1.21 | 0.992 | 1.11 |
| RERF-LC-KJ | 0.843 | 0.769 | 0.784 | 0.762 | 0.81 | 0.458 | 0.496 | 0.501 | 0.446 | 0.415 | 1.03 | 0.996 | 0.93 | 0.938 | 0.823 | 1.05 | 1.02 | 1.04 | 0.98 | 0.888 |
| NCI-H1651 | 0.996 | 0.885 | 0.905 | 0.936 | 0.834 | 0.655 | 0.393 | 0.781 | 0.604 | 0.6 | 1.02 | 0.95 | 0.991 | 0.971 | 0.917 | 1.13 | 0.905 | 1.13 | 0.964 | 0.988 |
| NCI-H1793 | 0.707 | 0.677 | 0.637 | 0.654 | 0.693 | 1.13 | 0.81 | 1.24 | 0.805 | 0.76 | 0.954 | 0.946 | 0.78 | 0.878 | 0.882 | 1.14 | 1.01 | 0.938 | 1.04 | 0.823 |
| NCI-H2023 | 0.637 | 0.573 | 0.616 | 0.563 | 0.549 | 0.265 | 0.198 | 0.292 | 0.225 | 0.178 | 1.06 | 0.935 | 1.09 | 1.08 | 0.843 | 1.15 | 0.996 | 1.06 | 0.955 | 0.781 |
| LC-2-ad | 0.953 | 0.827 | 0.86 | 1 | 0.875 | 0.242 | 0.276 | 0.268 | 0.272 | 0.264 | 0.991 | 1.01 | 0.911 | 1.03 | 0.965 | 1.01 | 0.921 | 1.13 | 0.99 | 0.93 |
